Counter-ions that a name gives are not always drawn.
Key:
IKKβ [1] = target: T1, IKKβ (Homo sapiens, UniProt O14920); assay: IKKβ kinase assay (IKKβ-Inhibitor Screening Kit, ELISA); assay type: biochemical; conditions: IKKβ-Inhibitor Screening Kit (Calbiochem), GST-IκBα substrate
T1 sequence (O14920 1-756): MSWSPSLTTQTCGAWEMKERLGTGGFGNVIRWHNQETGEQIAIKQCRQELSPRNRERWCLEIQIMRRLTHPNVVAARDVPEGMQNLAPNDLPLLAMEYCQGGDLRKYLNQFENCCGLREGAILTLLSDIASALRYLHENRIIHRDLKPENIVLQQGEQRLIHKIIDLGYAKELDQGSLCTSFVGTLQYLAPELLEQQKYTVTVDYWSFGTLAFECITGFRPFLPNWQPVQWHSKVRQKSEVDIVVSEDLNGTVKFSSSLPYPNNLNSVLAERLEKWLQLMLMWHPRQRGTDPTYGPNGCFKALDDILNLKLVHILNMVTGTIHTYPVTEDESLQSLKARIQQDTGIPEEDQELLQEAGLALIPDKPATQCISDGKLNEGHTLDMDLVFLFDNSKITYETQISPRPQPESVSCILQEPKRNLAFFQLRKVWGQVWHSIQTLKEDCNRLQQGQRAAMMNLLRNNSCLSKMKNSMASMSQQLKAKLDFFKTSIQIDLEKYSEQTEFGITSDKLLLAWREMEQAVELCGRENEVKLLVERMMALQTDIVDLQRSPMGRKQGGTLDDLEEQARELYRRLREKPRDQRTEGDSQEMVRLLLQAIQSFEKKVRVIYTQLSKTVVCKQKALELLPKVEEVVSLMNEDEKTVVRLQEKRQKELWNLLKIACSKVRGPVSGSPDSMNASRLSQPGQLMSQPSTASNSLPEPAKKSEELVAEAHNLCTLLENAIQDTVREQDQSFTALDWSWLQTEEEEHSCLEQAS
Experimental: The IKKβ kinase assay is used to assess the effect of a compound of the present invention on the enzymatic activity of IKKβ kinase. The IKKβ kinase assay is performed in vitro using an IKKβ-Inhibitor Screening Kit (Calbiochem., Cat.No. CBA044). All reactions (50 μL) are started by adding 10 μL of kinase buffer (kit component, No. JA9130), 10 μL of GST-IKBa substrate (IKKb substrate, kit component, No. JA9127), 10 μL of IKKβ (2.5 ng/well, kit component, No. 481404), 10 μL of the test compound (DMSO solution) or H2O, and 10 μL of ATP/MgCl2 (kit component, No. JA7914) and then incubating at 30° C. for 30 min. The contents of the wells are then discarded. Each well is washed 3 times with 200 μL 1× wash buffer (kit component, NO. JA1617, 1:20 dilution). 100 μL of anti-phospho IκBα (Ser^32/Ser^36) antibody conjugate (kit component, No. JA9126) is added to each well and incubated at room temperature for 1 h. Then the wells are washed 3 times with 1× wash buffer (kit component, NO. JA1617, 1:20 dilution), […] and 100 μL HRP-conjugate (kit component, No. JA7643) is added to each well and incubated at room temperature for 1 h. Then the wells are washed 3 times with 200 μL 1× wash buffer (kit component, NO. JA1617, 1:20 dilution) and 100 μL TMB substrate conjugate (kit component, No. JA1608) is added to each well. The plate is incubated at room temperature until the color changes. […]

PLP-139-151 induced EAE = assay: Mouse experimental autoimmune encephalomyelitis (EAE) model; assay type: in vivo, SJL/J mice
IKKβ [2] = target: T1, IKKβ; assay: IKKβ kinase assay (Z′-LYTE Assay Kit-Ser/Thr 5 Peptide); assay type: biochemical
Experimental: Alternately, the IKKβ kinase assay is performed in vitro using a Z′-LYTE™ Assay Kit-Ser/Thr 5 Peptide (Invitrogen, Cat.No. PV3178). All reactions (20 μL) are started by adding 0.8 μL of the test compound in a DMSO solution, 10 μL of Kinase/Peptide Mixture or Phospho-Peptide solution (Invitrogen, Cat.No. PV3219, diluted with 1.33× Kinase Buffer), 5 μL of 1.33× Kinase Buffer (Invitrogen, Cat.No. PV3189, 5× diluted with distilled water) or ATP Solution (5 μM), and 4.2 μL of distilled water. The 384-well assay plate (Corning, Cat.No. 3575) is mixed and incubated at room temperature for 1 hour. 10 μL of the Development Solution [Development Reagent B (Invitrogen, Cat.No. PV3296)/Development Buffer (Invitrogen, Cat.No. PV3127)=1:128] is then added to each well, mixed and incubated at room temperature for another 1 h. The kinase reaction is then stopped by adding 10 μL of the Stop Reagent (Invitrogen, Cat.No. PV3094), and the plate is read with a Wallac 1420 VICTOR^3 Multilabel Counter (PERKIN ELMER™) at 445 nm and 520 nm fluorescence. The assay has an MSR of 2.14. The compound is initially tested at 8 concentrations (10 μM) to 0.003 μM) using a 1:3 serial dilution scheme.

SMILES | IC50 (IKKβ [1]) [nM] | body weight loss (PLP-139-151 induced EAE; 10 and 30 mg/kg) | ED50 (PLP-139-151 induced EAE; Mus musculus, 3, 10, and 30 mg/kg oral twice daily, read-out: ED50, EAE clinical score) [mg/kg] | IC50 (IKKβ [2]) [nM]
O=C(NC1CC1)c1cccc2[nH]c(-c3nc(N[C@@H]4CCC[C@@H]4O)ncc3Cl)cc12 [Example 1, 2-{5-Chloro-2-[(1R,2S)-2-hydroxycyclopentylamino]pyrimidin-4-yl}-N-cyclopropyl-1H-indole-4-carboxamide hydrochloride] | 15 |  |  | 
Cl.O=C(NC1CC1)c1cccc2[nH]c(-c3nc(N[C@@H]4CCC[C@H]4O)ncc3Cl)cc12 [Example 2, 2-{5-Chloro-2-[(1R,2R)-2-hydroxycyclopentylamino]pyrimidin-4-yl}-N-cyclopropyl-1H-indole-4-carboxamide hydrochloride] |  | improves | 3.7 | 58.1
